Measurements published in patent US20250319047A1, “ANTIMICROBIAL TREATMENT AND PREVENTION BY PERILLYL ALCOHOL AND DERIVATIVES” (priority 2024, published 2025).

Legend:
[1] = acids formed by oxidation of POH/PCO; cited from earlier work
[2] = in vivo
Text: (§1) The antimicrobial effectiveness of POH diminishes in more dilute solutions. […] However, POH at concentrations equal to and higher than 4% will cause skin irritation and thus are not practical for clinical applications. Therefore, the highest concentration proposed is 3% to maintain a practical clinical range.

[3] = humans, dogs, and rats; cited from earlier work
all microorganisms = test: Challenge of antimicrobial effectiveness of POH by concentration; type: cell-based
Text: as §1

[4] = rats, prior systemic studies; cited from earlier work

SMILES | antimicrobial activity [1] | concentration that will cause skin irritation [2] [%] | metabolization [3] | antimicrobial effectiveness (all microorganisms; 0.1% concentration) | antimicrobial effectiveness (all microorganisms; over 90% concentrations) | metabolization, detection of parent compound [4]
C=C(C)C1CCC(C(=O)O)CC1 (stereo not shown) [Dihydroperillic] | lose the antimicrobial activity |  |  |  |  | 
C=C(C)[C@@H]1CC=C(C(=O)O)CC1 [Perillic] | lose the antimicrobial activity |  |  |  |  | 
C=C(C)[C@@H]1CC=C(CO)CC1 [Perillyl alcohol, perillyl alcohol] |  | ≥ 4 | rapidly metabolized | reasonable against all microorganisms | eradicating the microorganisms completely | not detected
